The values that follow come from PMC3365486 (Behavioural Pharmacology, 2012).

Several values for one entry are separate records, joined by “and”; a condition that tells them apart may be missing. Equal values may be shown once. Where a name gives a salt, the structure may show the parent alone. Marks after values point to notes of the source that are not given here.

Test [1] deals with T1, recombinant human D4 receptors (Homo sapiens, UniProt P21917).
T1 sequence (P21917 1-419): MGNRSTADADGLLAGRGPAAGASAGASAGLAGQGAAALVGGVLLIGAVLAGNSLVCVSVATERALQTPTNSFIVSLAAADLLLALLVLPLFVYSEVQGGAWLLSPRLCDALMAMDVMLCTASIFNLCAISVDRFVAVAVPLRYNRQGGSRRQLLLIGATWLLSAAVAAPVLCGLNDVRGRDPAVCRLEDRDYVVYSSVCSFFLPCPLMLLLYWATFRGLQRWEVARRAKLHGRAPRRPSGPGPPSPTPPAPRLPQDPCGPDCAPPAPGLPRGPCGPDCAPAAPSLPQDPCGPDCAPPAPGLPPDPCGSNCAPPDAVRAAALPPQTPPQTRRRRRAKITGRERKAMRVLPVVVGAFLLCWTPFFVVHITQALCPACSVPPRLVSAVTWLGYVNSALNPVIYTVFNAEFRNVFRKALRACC
Description: In vitro competition binding, [3H]spiperone, CHO cell membranes. The conditions noted are these: read-out: in vitro Binding Affinity Ki, hD4, geometric mean (95%CI).

Test [2] has as its system rats trained to self-administer cocaine. Description: Fixed ratio. It is filed as in vivo, rat. To be noted: for FR5 responding when substituted for cocaine, relative to saline: cocaine and 7-OH-DPAT 0.032–1.0, PF-592,379 0.01–1.0 mg/kg/inj i.v., n=6.
The test system of the next test is rats. Description: Locomotor activity observed at large doses. Type of test: in vivo, rat. To be noted: PF-592,379 doses as large as 32.0 mg/kg.
Test [3] relates to rats trained to self-administer cocaine. The test can be described thus: Progressive ratio. Type of test: in vivo, rat. To be noted: for Total Injections / Total Responses / Final Ratio Achieved: maximally effective dose (cocaine 1.0, 7-OH-DPAT 0.32, PF-592,379 0.1 mg/kg/inf), mean (SEM); for PR responding when substituted for cocaine, relative to saline: cocaine 0.032–1.0, 7-OH-DPAT and PF-592,379 0.1–1.0 mg/kg/inj.

A further test deals with drug-naïve rats. Description: Acquisition of IV self-administration under FR1 in drug-naïve rats. It is filed as in vivo, rat. The conditions noted are these: for % Met, Both Criteria Met / % Met, criterion ≥ 15 Injections per Session / % Met, criterion ≥ 70% Active Lever Selection: FR1, 18 sessions, n=7.
The test system of test [4] is rats trained to discriminate 5.6 mg/kg cocaine from saline. To be noted: rat, in vivo; for maximum cocaine-appropriate responding: sc.
Test [5] has as its target T1, recombinant human D4 receptors. Description: Inhibition of forskolin-stimulated cAMP accumulation in intact CHO cells. Type of test: cell-based. To be noted: read-out: in vitro Functional Activity EC50, hD4, geometric mean (95%CI). Background: Cyclic AMP is a second messenger, typically raised through Gs and lowered through Gi signalling.
For test [6], the target named is recombinant human D5 receptors (Homo sapiens, UniProt P21918). The test can be described thus: In vitro competition binding, [3H]SCH23390, CHO cell membranes.
Test [7] concerns the target recombinant human D2 receptors (Homo sapiens, UniProt P14416). The test can be described thus: In vitro competition binding, [3H]U-86170, CHO cell membranes.
The target of test [8] is T2, recombinant human D3 receptors (Homo sapiens, UniProt P35462). Description: Inhibition of forskolin-stimulated cAMP accumulation in intact CHO cells. Type of test: cell-based.
For test [9], the target named is T2, recombinant human D3 receptors. Description: In vitro competition binding, [3H]spiperone, CHO cell membranes. The conditions noted are these: no binding up to 10 µM.
Test [10] shares this target. To be noted: cAMP accumulation; ref Attkins et al., 2010; cited from earlier work.
Test [11] has as its target recombinant human D1 receptors (Homo sapiens, UniProt P21728). The test can be described thus: In vitro competition binding, [3H]SCH23390, CHO cell membranes.
A further test relates to D3 or D2 receptor. To be noted: ref Collins et al., 2007; cited from earlier work.
For a further test, the system named is D3 receptor. The conditions noted are these: ref Millan et al., 2002; cited from earlier work.
A further test deals with D2 receptor. The conditions noted are these: ref McCall et al., 2005; cited from earlier work.
[12] abbreviates: 0.32 mg/kg per injection IV, FR1.

T2 sequence (P35462 whole entry): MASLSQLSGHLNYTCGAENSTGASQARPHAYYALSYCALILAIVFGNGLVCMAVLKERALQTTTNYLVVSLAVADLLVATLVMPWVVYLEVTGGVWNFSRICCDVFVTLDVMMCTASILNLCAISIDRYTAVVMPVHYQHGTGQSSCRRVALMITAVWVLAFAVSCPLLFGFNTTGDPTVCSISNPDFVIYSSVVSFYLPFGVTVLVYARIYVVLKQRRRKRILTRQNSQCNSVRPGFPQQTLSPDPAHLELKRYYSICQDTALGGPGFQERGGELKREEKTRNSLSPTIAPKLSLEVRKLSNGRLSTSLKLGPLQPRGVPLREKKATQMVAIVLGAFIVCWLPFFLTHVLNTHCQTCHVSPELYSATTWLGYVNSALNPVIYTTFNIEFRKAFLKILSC
recombinant human D2 receptors, sequence (P14416 whole entry): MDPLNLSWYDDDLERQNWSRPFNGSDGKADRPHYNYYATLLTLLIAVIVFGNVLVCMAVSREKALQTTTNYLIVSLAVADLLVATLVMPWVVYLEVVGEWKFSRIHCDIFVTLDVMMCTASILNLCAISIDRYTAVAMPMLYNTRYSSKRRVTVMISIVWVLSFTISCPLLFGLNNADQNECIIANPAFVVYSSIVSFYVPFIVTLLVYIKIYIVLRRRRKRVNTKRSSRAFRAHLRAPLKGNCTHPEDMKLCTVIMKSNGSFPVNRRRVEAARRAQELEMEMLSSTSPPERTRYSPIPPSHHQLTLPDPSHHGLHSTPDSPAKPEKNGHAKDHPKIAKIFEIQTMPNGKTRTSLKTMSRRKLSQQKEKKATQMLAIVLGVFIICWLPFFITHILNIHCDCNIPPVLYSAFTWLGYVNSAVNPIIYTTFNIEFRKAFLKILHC
recombinant human D1 receptors, sequence (P21728 whole entry): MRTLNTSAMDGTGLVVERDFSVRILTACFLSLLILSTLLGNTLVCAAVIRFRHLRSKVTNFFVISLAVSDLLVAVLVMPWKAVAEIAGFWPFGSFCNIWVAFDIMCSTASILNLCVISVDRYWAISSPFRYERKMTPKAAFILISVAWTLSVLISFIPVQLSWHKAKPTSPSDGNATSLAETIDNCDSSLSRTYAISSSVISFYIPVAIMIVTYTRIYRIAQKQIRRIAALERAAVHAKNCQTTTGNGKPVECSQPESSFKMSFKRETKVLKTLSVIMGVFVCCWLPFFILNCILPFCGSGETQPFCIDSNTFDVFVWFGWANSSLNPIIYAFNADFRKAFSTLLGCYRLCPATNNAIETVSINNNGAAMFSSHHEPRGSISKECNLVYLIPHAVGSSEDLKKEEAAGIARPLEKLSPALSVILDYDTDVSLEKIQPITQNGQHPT
recombinant human D5 receptors, sequence (P21918 whole entry): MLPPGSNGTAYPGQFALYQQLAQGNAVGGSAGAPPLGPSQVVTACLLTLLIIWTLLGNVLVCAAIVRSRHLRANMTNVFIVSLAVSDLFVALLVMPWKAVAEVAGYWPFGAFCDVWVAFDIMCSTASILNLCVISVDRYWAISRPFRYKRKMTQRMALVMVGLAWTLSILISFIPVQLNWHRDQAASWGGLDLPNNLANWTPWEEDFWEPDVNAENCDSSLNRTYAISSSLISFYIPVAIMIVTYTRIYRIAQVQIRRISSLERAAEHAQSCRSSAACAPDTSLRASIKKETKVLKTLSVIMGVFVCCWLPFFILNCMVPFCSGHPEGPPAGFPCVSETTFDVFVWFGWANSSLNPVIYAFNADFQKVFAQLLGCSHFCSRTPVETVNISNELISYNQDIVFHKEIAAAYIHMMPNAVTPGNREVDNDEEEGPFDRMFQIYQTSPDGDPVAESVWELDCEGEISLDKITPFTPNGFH

Turning to `Br.CCCN(CCC)C1CCc2ccc(O)cc2C1` (racemic) [7-OH-DPAT, (±)-7-Hydroxy-2-dipropylaminotetralin HBr], in test [1], the Ki (commonly the dissociation constant of the complex between target and ligand, obtained from inhibition or displacement) came to 110 nM. Moreover, the “doses maintaining FR5 responding significantly greater than saline” value in test [2] (FR5, i.v.) is 0.1 mg/kg/inj. Also, the “effect on locomotor activity” value in the test on rats is listed as “stimulated locomotor activity”. In addition, in test [3] (PR), the “Total Injections” value was 17.2 (5.4) and the “Total Responses” value is listed as 690.5 (303.7). Also, the “Sessions to Criteria (SEM), criterion ≥ 15 Injections per Session” value (“Sessions to Criteria (SEM) … per Session” below) in the test on drug-naïve rats (setting [12]) is 15.5 (1.5) sessions. Moreover, in the test on drug-naïve rats (0.32 mg/kg per injection IV), the “% Met, Both Criteria Met” value was determined as 0% and the “% Met, criterion ≥ 15 Injections per Session” value (from here on “% Met … per Session”) is listed as 28%. Besides, in test [4], the “substitution for the discriminative stimulus effects of cocaine” value is recorded as “only partially substituted for cocaine”; the maximum cocaine-appropriate responding was 59% and ~ 60%. The concentration giving a half-maximal response (EC50) (in general, the midpoint of the concentration-response curve) in test [5] worked out at 45.2 nM.
For `CCCN1C[C@@H](c2ccc(N)nc2)OC[C@@H]1C` [PF-592,379, 5-[(2R,5S)-5-methyl-4-propylmorpholin-2-yl]pyridin-2-amine], the IC50 (usually the midpoint of a concentration-inhibition curve) in [6] was at least 10000 nM. In addition, the “injections per session when substituted for cocaine” value in test [2] (FR5 or PR schedule, doses as large as 1.0 mg/kg) is given as below 5 injections per session. Besides, the “FR5 responding when substituted for cocaine, relative to saline” value in test [2] is reported as “no different than saline”. For the same molecule, in the test on rats, the “effect on locomotor activity” value is reported as “only a mild inhibition of locomotor activity”. For the same molecule, the 50% inhibitory concentration (IC50) in test [7] is at least 10000 nM. The “functional selectivity for D3 over D2 receptors” value in test [8] was “at least 470 fold”. For the same molecule, the “binding selectivity for D3 over D2, D1, and D5 receptors” value in test [9] is “at least 46 fold”. In test [3] (PR), the “Final Ratio Achieved” value is reported as 8.9 (2.1), the “Total Injections” value is on record as 1.3 (0.5) and the “Total Responses” value is recorded as 18.5 (11.7). In addition, the “PR responding when substituted for cocaine, relative to saline” value in test [3] is given as “Low, saline-like levels of responding”. Besides, the “Sessions to Criteria (SEM) … per Session” value with drug-naïve rats (setting [12]) was 3 (n.a.) sessions. Besides, in the test on drug-naïve rats (0.32 mg/kg per injection IV), the “% Met, Both Criteria Met” value is 0%; the “% Met … per Session” value amounted to 14%; the “% Met, criterion ≥ 70% Active Lever Selection” value is listed as 0%. Moreover, in the test with drug-naïve rats (0.32 mg/kg/inj, FR1), the “drug earned during the first few acquisition sessions” value is “approximately 3 mg/kg” and the “injections per session by the end of the acquisition period” value is given as below 5 injections per session. In test [10], the “agonist efficacy at the D3 receptor” value is “full agonist”. Also, in [4], the “responding at the largest doses tested, relative to baseline” value is recorded as ~ 15 % of baseline; the “substitution for the discriminative stimulus effects of cocaine” value is recorded as “nearly exclusive responding on the saline-appropriate lever”; the maximum cocaine-appropriate responding stood at 3.5%. For the same molecule, in test [11], the IC50 was at least 10000 nM.
With `COC(=O)[C@H]1[C@@H](OC(=O)c2ccccc2)C[C@@H]2CC[C@H]1N2C` [Cocaine, Cocaine HCl], the “FR5 responding when substituted for cocaine, relative to saline” value in test [2] is “maintained dose-dependent levels of responding”. Moreover, the “doses maintaining significantly more PR responding than saline” value in test [3] (PR, i.v.) is at least 0.1 mg/kg/inj. For the same molecule, in [3] (PR), the “Final Ratio Achieved” value is 172.0 (40.4) ^***, the “Total Injections” value is 31.0 (3.4) ^*** and the “Total Responses” value is given as 1895.0 (687.3) ^**. In addition, in [3], the “PR responding when substituted for cocaine, relative to saline” value was “monotonic increases in responding”. For the same molecule, in the test on drug-naïve rats (setting [12]), the “Sessions to Criteria (SEM), Both Criteria Met” value is listed as 11.0 (2.3) sessions; the “Sessions to Criteria (SEM) … per Session” value is reported as 11.8 (2.4) sessions; the “Sessions to Criteria (SEM), criterion ≥ 70% Active Lever Selection” value is given as 10.4 (2.1) sessions. In the test with drug-naïve rats (0.32 mg/kg per injection IV), the “% Met, Both Criteria Met” value turned out to be 71%; the “% Met … per Session” value is 86%; the “% Met, criterion ≥ 70% Active Lever Selection” value is 71%.
Consider `CCCN[C@H]1CCc2nc(N)sc2C1` [pramipexole], for which, in the test on D3 or D2 receptor, the “range of doses over which the D3 or D2 receptor is selectively activated in vivo” value was at most 30 fold. Also, the “in vitro radioligand binding selectivity for the D3 over D2” value in the test on D3 receptor is ~ 100 fold.
`CN[C@@H]1Cc2cccc3[nH]c(=O)n(c23)C1` [sumanirole]: the “range of doses over which the D3 or D2 receptor is selectively activated in vivo” value with D3 or D2 receptor was at most 30 fold. The “in vitro radioligand binding selectivity for the D2 over D3 receptor” value with D2 receptor is reported as ~ 200 fold.
